Results published in the CheMixHub viscosity set.
± gives the uncertainty stated by the source.

Test: xn = mol fraction of the nth substance listed
Details: 101 kPa

Oc1ccccc1Cl + CCCCOCCO
viscosity [mPa·s]
Details	x1 = 0.1256	x1 = 0.2442	x1 = 0.3565	x1 = 0.4628	x1 = 0.5638	x1 = 0.6597	x1 = 0.751	x1 = 0.8379	x1 = 0.9208
303.15 K	3.306 ± 0.074	4.125 ± 0.091	4.745 ± 0.1	5.08 ± 0.11	5.13 ± 0.11	4.92 ± 0.11	4.5 ± 0.098	3.975 ± 0.088	3.396 ± 0.076
308.15 K	2.934 ± 0.066	3.49 ± 0.077	3.876 ± 0.086	4.084 ± 0.09	4.093 ± 0.09	3.935 ± 0.087	3.654 ± 0.081	3.302 ± 0.074	2.895 ± 0.065
313.15 K	2.604 ± 0.059	2.992 ± 0.067	3.267 ± 0.073	3.404 ± 0.076	3.405 ± 0.076	3.298 ± 0.073	3.106 ± 0.069	2.847 ± 0.064	2.563 ± 0.058
318.15 K	2.282 ± 0.052	2.554 ± 0.058	2.738 ± 0.062	2.82 ± 0.063	2.833 ± 0.064	2.754 ± 0.062	2.624 ± 0.059	2.45 ± 0.056	2.254 ± 0.051
